# Results from patent publication US7112564B2, “Biodegradable glucosaminemuramyl peptides for apoptosis modulation” (Zylacta Corporation, priority 2003, dated 2006).
# Tested on: A549 cells (human lung cancer)
# Test: Inhibition of TNF alpha cytotoxicity (LDH release into culture supernatant)
# Type: cell-based
# Conditions: ingredient at 1 ug/ml, FIG. 2
# Experimental: A549 cells (human lung cancer) were seeded in six-well plates, and after 24 h (70% confluence) treated with 25 ug/ml cycloheximide (CHX) and either 100 U/ml human TNF (Beoringer) or an agonist monoclonal antibody to FAS (Panerva) in concentration 200 ng/ml. GMDP, and GMHP were added just prior to the cytokine in the concentrations discussed in the figure legends. Twenty hours after the treatment 20 ul of the cultured supernatant was removed and tested for the LDH activity in 96 well plates in triplicate. Samples were assayed on an EL340 Microplate reader (Biotec Instruments, Inc) at 490-nm wavelength.
# The purpose of this experiment was to show the synergistic effect of NAG and D-glutamine on LDH release. Technically the experiment was similar to example 1. Both ingredients were added in concentration 1 ug/ml. […] Almost 50% inhibition of LDH activity was noticed for NAG+D-glutamine composition. […] The glucosamine muramyl hexapeptide has 3 D-amino acids while GMDP has only one D-isoglutamine.
smiles,measurement,value
NC(=O)CC[C@H](N)C(=O)O [L-glutamine],protection of cells from TNF alpha cytotoxicity (LDH release),does not protect cells from TNF alpha cytotoxicity
